Measurements as given in ChEMBL document CHEMBL5252509, “In depth analysis of kinase cross screening data to identify chemical starting points for inhibition of the Nek family of kinases” (Medchemcomm, 2018).

The compounds below were run against T1, Serine/threonine-protein kinase Nek5 (Homo sapiens) (UniProt Q6P3R8) (assay: Inhibition of NEK5 (unknown origin) at 10 uM relative to control).
T1 sequence (whole entry): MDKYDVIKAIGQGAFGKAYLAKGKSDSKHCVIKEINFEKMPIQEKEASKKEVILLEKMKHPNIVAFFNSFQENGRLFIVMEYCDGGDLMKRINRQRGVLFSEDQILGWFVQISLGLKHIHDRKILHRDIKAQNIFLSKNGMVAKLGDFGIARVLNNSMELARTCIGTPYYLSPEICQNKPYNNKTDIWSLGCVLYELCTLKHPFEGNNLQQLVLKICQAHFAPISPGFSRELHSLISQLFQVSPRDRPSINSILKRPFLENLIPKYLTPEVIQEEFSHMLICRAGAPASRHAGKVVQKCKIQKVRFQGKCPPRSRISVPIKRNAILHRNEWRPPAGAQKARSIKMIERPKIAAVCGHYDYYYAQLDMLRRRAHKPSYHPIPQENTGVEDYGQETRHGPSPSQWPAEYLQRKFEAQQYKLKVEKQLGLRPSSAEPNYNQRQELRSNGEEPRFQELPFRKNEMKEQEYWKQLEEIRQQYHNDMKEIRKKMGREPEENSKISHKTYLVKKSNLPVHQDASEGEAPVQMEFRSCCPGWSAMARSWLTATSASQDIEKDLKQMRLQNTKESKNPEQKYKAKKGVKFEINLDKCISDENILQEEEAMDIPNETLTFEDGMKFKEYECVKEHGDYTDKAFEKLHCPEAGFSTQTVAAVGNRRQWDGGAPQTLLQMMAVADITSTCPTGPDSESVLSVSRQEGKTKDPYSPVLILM

Compound	% control [%]
Fc1cc(-c2cc[nH]/c(=N/c3ccc(-n4cnc(N5CCOCC5)n4)cc3)n2)cc(N2CCOCC2)c1	1.4
O=C1NC(=O)/C(=C/c2ccc3nccc(-c4ccncc4)c3c2)S1	100

Second part, the compound after the results:

% control [%]	Compound
92	Cc1cc(NC(=O)c2cccc(NC(=O)/C=C/CN(C)C)c2)ccc1Nc1nccc(-c2cccnc2)n1
51	Cc1ccc(NC(=O)c2ccc(NC(=O)/C=C/CN(C)C)cc2)cc1Nc1nccc(-c2cccnc2)n1
98	CN(C)C/C=C/C(=O)Nc1cccc(C(=O)Nc2ccc(Nc3nccc(-c4c(-c5ccccc5)nn5ccccc45)n3)cc2)c1
100	CN(C)C/C=C/C(=O)Nc1cccc(C(=O)Nc2ccc(Nc3nccc(/C(C#N)=C4\Nc5ccccc5S4)n3)cc2)c1
7.8	CN(C)C/C=C/C(=O)Nc1cccc(C(=O)Nc2ccc(Nc3nccc(-c4cccnc4)n3)cc2)c1
2.2	CN(C)C/C=C/C(=O)Nc1ccc(C(=O)Nc2cccc(Nc3nccc(-c4cccnc4)n3)c2)cc1

What follows are compounds tested against T2, Eukaryotic translation initiation factor 2-alpha kinase 3 (Homo sapiens, UniProt Q9NZJ5) (assay: Inhibition of PERK (unknown origin)).
T2 sequence (Q9NZJ5 whole entry): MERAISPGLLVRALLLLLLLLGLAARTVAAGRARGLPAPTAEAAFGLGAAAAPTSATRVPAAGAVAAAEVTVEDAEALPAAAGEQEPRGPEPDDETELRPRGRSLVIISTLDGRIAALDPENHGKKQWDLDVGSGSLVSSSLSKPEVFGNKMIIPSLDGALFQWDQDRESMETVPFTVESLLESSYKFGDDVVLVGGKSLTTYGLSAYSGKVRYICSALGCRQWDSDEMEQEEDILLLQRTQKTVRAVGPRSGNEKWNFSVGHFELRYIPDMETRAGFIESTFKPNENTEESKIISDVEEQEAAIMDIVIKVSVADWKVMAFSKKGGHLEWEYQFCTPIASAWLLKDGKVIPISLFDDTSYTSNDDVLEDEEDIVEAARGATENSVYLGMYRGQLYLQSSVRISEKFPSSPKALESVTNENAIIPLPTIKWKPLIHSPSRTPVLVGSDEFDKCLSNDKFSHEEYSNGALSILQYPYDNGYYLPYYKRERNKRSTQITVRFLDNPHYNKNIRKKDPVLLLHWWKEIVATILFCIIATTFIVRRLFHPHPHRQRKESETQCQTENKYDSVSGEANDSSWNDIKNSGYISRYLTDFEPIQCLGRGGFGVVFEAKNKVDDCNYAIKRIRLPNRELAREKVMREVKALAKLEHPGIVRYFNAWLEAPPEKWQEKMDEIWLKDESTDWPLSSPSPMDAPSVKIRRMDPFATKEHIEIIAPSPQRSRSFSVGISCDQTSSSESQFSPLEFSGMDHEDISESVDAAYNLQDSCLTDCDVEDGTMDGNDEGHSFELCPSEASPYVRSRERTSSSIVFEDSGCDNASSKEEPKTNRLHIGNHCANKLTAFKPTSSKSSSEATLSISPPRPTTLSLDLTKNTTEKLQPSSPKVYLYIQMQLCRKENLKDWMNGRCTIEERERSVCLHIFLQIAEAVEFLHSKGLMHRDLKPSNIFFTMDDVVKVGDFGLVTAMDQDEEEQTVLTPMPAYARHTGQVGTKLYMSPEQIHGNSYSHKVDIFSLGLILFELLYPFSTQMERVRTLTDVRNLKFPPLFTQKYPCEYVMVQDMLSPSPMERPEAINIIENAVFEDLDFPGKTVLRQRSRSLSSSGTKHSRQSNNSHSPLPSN

IC50 [nM]	Compound
< 15	Nc1nccc2scc(-c3ccc4c(c3)CCN4C(=O)Cc3ccccc3)c12
< 15	Nc1nccc2scc(-c3ccc4c(c3)CCN4C(=O)Cc3cc(F)ccc3F)c12
< 15	Nc1ncc(-c2cn[nH]c2)c2scc(-c3ccc4c(c3)CCN4C(=O)Cc3ccccc3)c12
< 15	Cn1cc(-c2cnc(N)c3c(-c4ccc5c(c4)CCN5C(=O)Cc4ccccc4)csc23)cn1

Compound	IC50 [nM]
Cc1ccc(CC(=O)N2CCc3cc(-c4cn(C)c5ncnc(N)c45)ccc32)cc1	17

What follows are compounds tested against Serine/threonine-protein kinase Nek5 (Homo sapiens, UniProt Q6P3R8) (assay: Inhibition of NEK5 (unknown origin) assessed as dissociation constant).

Kd [nM]	Compound
730	COc1cc(Nc2ncc3c(C)nc(-c4cc5ccccc5[nH]4)n3n2)cc(OC)c1OC

The compounds below were run against Serine/threonine-protein kinase Nek2 (Homo sapiens, UniProt P51955) (assay: Inhibition of NEK2 (unknown origin) assessed as dissociation constant).
Sequence of Serine/threonine-protein kinase Nek2 (P51955 whole entry): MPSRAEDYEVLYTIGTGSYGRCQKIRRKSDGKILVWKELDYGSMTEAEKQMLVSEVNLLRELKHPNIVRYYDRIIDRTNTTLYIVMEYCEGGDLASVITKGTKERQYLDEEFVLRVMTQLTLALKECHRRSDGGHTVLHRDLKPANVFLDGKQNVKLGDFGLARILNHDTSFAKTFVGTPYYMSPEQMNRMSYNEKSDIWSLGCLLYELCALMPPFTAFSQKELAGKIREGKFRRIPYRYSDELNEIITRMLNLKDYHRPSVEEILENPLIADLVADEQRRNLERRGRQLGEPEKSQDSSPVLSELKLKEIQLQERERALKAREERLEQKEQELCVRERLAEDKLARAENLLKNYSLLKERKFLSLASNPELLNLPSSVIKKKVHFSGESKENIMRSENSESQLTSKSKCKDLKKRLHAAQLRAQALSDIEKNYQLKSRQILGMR

Compound	Kd [nM]
COc1cccc(C2=C(Nc3ccc(Cl)c(C(=O)O)c3)C(=O)NC2=O)c1	460

What follows are compounds tested against Mitogen-activated protein kinase 8 (Homo sapiens, UniProt P45983) (assay: Inhibition of JNK1 (unknown origin)).
Sequence of Mitogen-activated protein kinase 8 (P45983 whole entry): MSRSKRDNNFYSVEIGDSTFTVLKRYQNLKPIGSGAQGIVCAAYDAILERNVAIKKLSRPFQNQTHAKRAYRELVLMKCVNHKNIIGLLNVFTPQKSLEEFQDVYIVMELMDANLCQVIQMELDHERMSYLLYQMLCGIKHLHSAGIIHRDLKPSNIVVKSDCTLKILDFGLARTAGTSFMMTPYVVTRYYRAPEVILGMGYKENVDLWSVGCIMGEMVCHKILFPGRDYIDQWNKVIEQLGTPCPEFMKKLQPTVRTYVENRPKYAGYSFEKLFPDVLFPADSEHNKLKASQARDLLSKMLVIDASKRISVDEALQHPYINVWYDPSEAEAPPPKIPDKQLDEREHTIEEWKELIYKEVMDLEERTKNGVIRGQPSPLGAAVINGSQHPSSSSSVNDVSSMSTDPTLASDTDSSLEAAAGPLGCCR

IC50 [nM]	Compound
41	CN(C)C/C=C/C(=O)Nc1cccc(C(=O)Nc2ccc(Nc3nccc(-c4cccnc4)n3)cc2)c1
